“And” between values parts separate entries of the source, which are not always exact repeats. Equal values may be shown once. Inconclusive results and toxic doses are left out. Rule as the data show it: active = T/C of 150% or more; inactive = T/C below 125%.
Tested on: L1210 leukemia ip in BDF1 mice, survival T/C
Experiment: NCI In Vivo Anticancer Drug Screen. Data for tumor model L1210 Leukemia (intraperitoneal) in B6D2F1 (BDF1) mice
Details: endpoint: mean survival time, higher = longer survival
Outline: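 Transplantable tumor model; survival measured in treated vs vehicle control mice. Value = treated/control.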

[1] = dose: 100.0 mg/kg/injection, schedule: Q01DX001 (ip), vehicle: saline
[2] = dose: 200.0 mg/kg/injection, schedule: Q01DX001 (ip), vehicle: saline
[3] = dose: 400.0 mg/kg/injection, schedule: Q01DX001 (ip), vehicle: saline
[4] = dose: 100.0 mg/kg/injection, schedule: Q01DX009 (ip), vehicle: saline with Tween-80
[5] = dose: 100.0 mg/kg/injection, schedule: Q04DX003 (ip), vehicle: saline with Tween-80
[6] = dose: 200.0 mg/kg/injection, schedule: Q01DX009 (ip), vehicle: saline with Tween-80
[7] = dose: 200.0 mg/kg/injection, schedule: Q04DX003 (ip), vehicle: saline with Tween-80
[8] = dose: 400.0 mg/kg/injection, schedule: Q04DX003 (ip), vehicle: saline with Tween-80
[9] = dose: 6.25 mg/kg/injection, schedule: Q01DX009 (ip), vehicle: saline with Tween-80
[10] = dose: 12.5 mg/kg/injection, schedule: Q01DX009 (ip), vehicle: saline with Tween-80
[11] = dose: 25.0 mg/kg/injection, schedule: Q01DX009 (ip), vehicle: saline with Tween-80
[12] = dose: 100.0 mg/kg/injection, schedule: Q04DX003 (ip), vehicle: Klucel (hydroxypropylcellulose) (HPC)
[13] = dose: 200.0 mg/kg/injection, schedule: Q04DX003 (ip), vehicle: Klucel (hydroxypropylcellulose) (HPC)
[14] = dose: 400.0 mg/kg/injection, schedule: Q04DX003 (ip), vehicle: Klucel (hydroxypropylcellulose) (HPC)
[15] = dose: 100.0 mg/kg/injection, schedule: Q01DX009 (ip), vehicle: Klucel (hydroxypropylcellulose) (HPC)
[16] = dose: 200.0 mg/kg/injection, schedule: Q01DX009 (ip), vehicle: Klucel (hydroxypropylcellulose) (HPC)

Measured: T/C

CSc1c(C(N)=O)c2c(N)ncnc2n1C1OC(CO)C(O)C1O (stereo not given)
inactive: [1] 114 % of control | [2] 121 % of control | [3] 121 % of control

COc1ccccc1C(=O)OCC(=O)c1ccc(-c2ccccc2)cc1
inactive: [2] 91 % of control | [3] 94 % of control

O=C(Nc1ccccc1C(F)(F)F)Oc1ccc(Cl)cc1Cl
inactive: [4] 103 % of control | [5] 94 % of control | [6] 99 % of control | [7] 102 % of control | [8] 86 % of control

CCCCCCCC/C=C\CCCCCCCC(=O)N1CC[N+](C)(C)CC1
inactive: dose: 5.0 mg/kg/injection, schedule: Q01DX001 (ip), vehicle: saline 96 % of control | dose: 10.0 mg/kg/injection, schedule: Q01DX001 (ip), vehicle: saline 104 % of control | dose: 20.0 mg/kg/injection, schedule: Q01DX001 (ip), vehicle: saline 93 % of control | dose: 40.0 mg/kg/injection, schedule: Q01DX001 (ip), vehicle: saline 93 % of control

C1=CC2(CC1)OCCO2
inactive: dose: 50.0 mg/kg/injection, schedule: Q01DX009 (ip), vehicle: saline with Tween-80 106 % of control | dose: 50.0 mg/kg/injection, schedule: Q04DX003 (ip), vehicle: saline with Tween-80 91 % of control | [4] 104 % of control | [5] 102 % of control | [6] 106 % of control | [7] 92 % of control | dose: 400.0 mg/kg/injection, schedule: Q01DX009 (ip), vehicle: saline with Tween-80 104 % of control | [8] 102 % of control

CC(=O)c1cc(I)c(O)c2ncccc12
inactive: [9] 91 % of control | dose: 6.25 mg/kg/injection, schedule: Q04DX003 (ip), vehicle: saline with Tween-80 95 % of control | [10] 91 % of control | dose: 12.5 mg/kg/injection, schedule: Q04DX003 (ip), vehicle: saline with Tween-80 106 % of control | [11] 89 % of control | dose: 25.0 mg/kg/injection, schedule: Q04DX003 (ip), vehicle: saline with Tween-80 116 % of control and 91 % of control | [5] 107 % of control

CN(C)N=Nc1ccc(C(=O)N/N=C/c2ccc(I)cc2)cc1
inactive: dose: 75.0 mg/kg/injection, schedule: Q04DX003 (ip), vehicle: Klucel (hydroxypropylcellulose) (HPC) 101 % of control | dose: 150.0 mg/kg/injection, schedule: Q04DX003 (ip), vehicle: Klucel (hydroxypropylcellulose) (HPC) 97 % of control | dose: 300.0 mg/kg/injection, schedule: Q04DX003 (ip), vehicle: Klucel (hydroxypropylcellulose) (HPC) 89 % of control

c1ccc2sc(SCCSc3nc4ccccc4s3)nc2c1
inactive: [9] 93 % of control | dose: 6.25 mg/kg/injection, schedule: Q04DX002 (ip), vehicle: saline with Tween-80 100 % of control | [10] 97 % of control | dose: 12.5 mg/kg/injection, schedule: Q04DX002 (ip), vehicle: saline with Tween-80 89 % of control | [11] 95 % of control | dose: 25.0 mg/kg/injection, schedule: Q04DX002 (ip), vehicle: saline with Tween-80 89 % of control

[Cl][Hg][Cl].c1ccc(CSc2ccccc2)cc1
inactive: dose: 5.0 mg/kg/injection, schedule: Q01DX001 (ip), vehicle: carboxymethylcellulose (CMC) 105 % of control

COc1cccc2c1CCc1cc3c(nc1-2)-c1cccc(OC)c1CC3
inactive: [12] 103 % of control | [13] 100 % of control | [14] 101 % of control

CC(C)=CCN1CCC2(C)c3cc(O)ccc3CC1C2C (stereo not given)
inactive: dose: 15.62 mg/kg/injection, schedule: Q04DX003 (ip), vehicle: Klucel (hydroxypropylcellulose) (HPC) 96 % of control | dose: 25.0 mg/kg/injection, schedule: Q01DX009 (ip), vehicle: Klucel (hydroxypropylcellulose) (HPC) 110 % of control | dose: 31.25 mg/kg/injection, schedule: Q04DX003 (ip), vehicle: Klucel (hydroxypropylcellulose) (HPC) 100 % of control | dose: 50.0 mg/kg/injection, schedule: Q01DX009 (ip), vehicle: Klucel (hydroxypropylcellulose) (HPC) 110 % of control | dose: 62.5 mg/kg/injection, schedule: Q04DX003 (ip), vehicle: Klucel (hydroxypropylcellulose) (HPC) 100 % of control | [15] 110 % of control | dose: 125.0 mg/kg/injection, schedule: Q04DX003 (ip), vehicle: Klucel (hydroxypropylcellulose) (HPC) 94 % of control | [16] 98 % of control | dose: 250.0 mg/kg/injection, schedule: Q04DX003 (ip), vehicle: Klucel (hydroxypropylcellulose) (HPC) 102 % of control

COc1ccc(COC(=O)Oc2ccc(C)cc2)cc1
inactive: dose: 100.0 mg/kg/injection, schedule: Q04DX002 (ip), vehicle: saline 113 % of control | dose: 200.0 mg/kg/injection, schedule: Q04DX002 (ip), vehicle: saline 109 % of control | dose: 400.0 mg/kg/injection, schedule: Q04DX002 (ip), vehicle: saline 98 % of control

CCCCSc1cc(NS(=O)(=O)c2ccccc2)ccc1NS(=O)(=O)c1ccccc1
inactive: [5] 97 % of control | [7] 93 % of control | [8] 95 % of control

Nc1cc(Cl)ccc1N1CCCC1
inactive: dose: 100.0 mg/kg/injection, schedule: Q04DX003 (ip), vehicle: saline 94 % of control | dose: 200.0 mg/kg/injection, schedule: Q04DX003 (ip), vehicle: saline 90 % of control

COc1ccc(C(CC(=O)c2ccc3c(c2)OCO3)C(=O)O)cc1OC (stereo not given)
inactive: [15] 93 % of control | [12] 100 % of control | [16] 98 % of control | [13] 96 % of control | dose: 400.0 mg/kg/injection, schedule: Q01DX009 (ip), vehicle: Klucel (hydroxypropylcellulose) (HPC) 93 % of control | [14] 93 % of control

Cc1cccc(C(C#N)c2ccc(N)cc2)c1 (stereo not given)
inactive: dose: 50.0 mg/kg/injection, schedule: Q01DX001 (ip), vehicle: saline 101 % of control | [1] 101 % of control | [2] 101 % of control

CCCCCCCCCCCC[N+]1(C)CC[N+](C)(CCCCCCCCCCCC)CC1 (stereo not given)
inactive: dose: 100.0 mg/kg/injection, schedule: Q04DX002 (ip), vehicle: other 105 % of control | dose: 200.0 mg/kg/injection, schedule: Q04DX002 (ip), vehicle: other 101 % of control

Source: PubChem BioAssay AID248 (DTP/NCI, 2004)
